Experiment [1] deals with T1, Voltage-dependent T-type calcium channel subunit alpha-1H (Homo sapiens, UniProt O95180). Format: functional.
Experiment [2] can be described thus: Trypanosoma cruzi growth suppression in host cells – NIH3T3 host cells, beta-gal luminescence, confirmation (AID 2044).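 Note: intracellular parasites grown in NIH/3T3 mouse fibroblasts as host cells; luminescent beta-galactosidase reporter signal from transgenic T. cruzi replicating inside host cells; inhibitors lower the luminescence signal.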 Format: functional, cell-based.
Experiment [3] has as its target T1, Voltage-dependent T-type calcium channel subunit alpha-1H. In words: Inhibitors of T-Type Calcium Channels. [Related pubchem assays (depositor defined):AID449739, AID463087, AID489005, AID493041, AID504579, AID504584, AID504619, AID504628]. Format: functional.
The nature of experiment [4]: NIH3T3 cell viability loss – ATP luminescence, mouse fibroblasts, counter-screen, dose response (AID 2010).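 Note: cells exposed to compound for about 90 hours before reading.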 Type of experiment: functional, cell-based.
For experiment [5], the target named is Eukaryotic translation initiation factor 4H (Homo sapiens, UniProt Q15056). In words: eIF4H binding inhibition – biochemical, uHTS, fluorescence polarization, translation initiation inhibitor project, primary screen (AID 2012).
Experiment [6] concerns the target T2, Mannose-6-phosphate isomerase (Homo sapiens, UniProt P34949).
T2 sequence (P34949 whole entry): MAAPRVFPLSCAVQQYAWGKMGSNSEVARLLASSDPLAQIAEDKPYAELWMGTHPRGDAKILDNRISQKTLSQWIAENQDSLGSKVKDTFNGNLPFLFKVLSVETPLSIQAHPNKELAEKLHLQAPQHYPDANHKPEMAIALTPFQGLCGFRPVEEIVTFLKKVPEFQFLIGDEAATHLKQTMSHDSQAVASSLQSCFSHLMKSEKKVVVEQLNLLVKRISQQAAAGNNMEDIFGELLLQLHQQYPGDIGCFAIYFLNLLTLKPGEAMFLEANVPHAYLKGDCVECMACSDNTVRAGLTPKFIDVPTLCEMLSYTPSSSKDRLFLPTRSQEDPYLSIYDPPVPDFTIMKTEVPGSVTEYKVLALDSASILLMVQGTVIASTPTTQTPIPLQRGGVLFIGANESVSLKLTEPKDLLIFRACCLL
In words: MPI inhibition at elevated mannose 6-phosphate – biochemical, fluorescence intensity, high mannose 6-phosphate, primary screen (AID 1220).

For experiment [7], the target named is Polyadenylate-binding protein 1 (Homo sapiens, UniProt P11940). In words: blockers of PABP interaction with poly(A) – biochemical, fluorescence polarization, […] (AID 2014). (Fluorescence polarisation rises when a labelled molecule tumbles more slowly, as on binding a larger partner.)
The target of experiment [8] is T3, Neuropeptide Y receptor type 2 (Homo sapiens, UniProt P49146).
T3 sequence (P49146 whole entry): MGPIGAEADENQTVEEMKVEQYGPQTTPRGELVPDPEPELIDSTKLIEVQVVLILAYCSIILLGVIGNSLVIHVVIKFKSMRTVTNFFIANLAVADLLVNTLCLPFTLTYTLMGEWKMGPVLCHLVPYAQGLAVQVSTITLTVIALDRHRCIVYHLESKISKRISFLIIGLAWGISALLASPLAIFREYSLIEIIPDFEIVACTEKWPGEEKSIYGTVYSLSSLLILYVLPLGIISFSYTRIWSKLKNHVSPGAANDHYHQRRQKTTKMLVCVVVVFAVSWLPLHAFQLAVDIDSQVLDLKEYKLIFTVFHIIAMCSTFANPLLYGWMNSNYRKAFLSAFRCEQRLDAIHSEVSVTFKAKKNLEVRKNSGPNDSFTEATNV
Description: IC50 for human NPY-Y2 blockade – cell-based, counter-screen for NPY-Y1 antagonist project, dose response (AID 1278). Format: functional. (In general: Counterscreens check selectivity or assay interference.)

The target in experiment [9] is Melanin-concentrating hormone receptor 1 (Homo sapiens, UniProt Q99705). Description: Fluorescence-based counterscreen for antagonists of the G-protein coupled receptor 7 (GPR7): cell-based high throughput dose response assay to identify antagonists of the melanin-concentrating hormone receptor 1 (MCHR1). Type of experiment: functional.
Chain of Melanin-concentrating hormone receptor 1 (Q99705 whole entry): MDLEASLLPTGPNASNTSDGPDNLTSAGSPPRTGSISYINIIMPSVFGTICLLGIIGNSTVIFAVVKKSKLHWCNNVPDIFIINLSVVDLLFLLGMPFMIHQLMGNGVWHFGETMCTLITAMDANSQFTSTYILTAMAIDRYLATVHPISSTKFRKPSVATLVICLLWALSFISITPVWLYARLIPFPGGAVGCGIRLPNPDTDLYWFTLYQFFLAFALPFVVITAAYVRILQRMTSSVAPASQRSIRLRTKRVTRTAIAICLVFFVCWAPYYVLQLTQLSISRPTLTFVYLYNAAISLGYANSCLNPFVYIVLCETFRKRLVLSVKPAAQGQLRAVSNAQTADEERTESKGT
The test system of a further experiment is INS1. Description: INS-1E survival protection against cytokine death – cell-based, luminescence, retest, dose response (AID 449756).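 Note: cell death triggered by IL-1 beta plus TNF-alpha plus IFN-gamma mixture; protective hits raise ATP signal compared with cytokine alone wells.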 Format: functional. To be noted: Rattus norvegicus, INS1.
Experiment [10] concerns the target Neuropeptides B/W receptor type 1 (Homo sapiens, UniProt P48145). Description: Fluorescence-based dose response cell-based high throughput screening assay to identify antagonists of the G-protein coupled receptor 7 (GPR7). [Related pubchem assays: 1952 (Screening assay (GPR7 antagonists).), 1880 (Summary AID.)]. Type of experiment: functional.
The target of experiment [11] is T4, Neuropeptide Y receptor type 1 (Homo sapiens, UniProt P25929).
T4 sequence (P25929 whole entry): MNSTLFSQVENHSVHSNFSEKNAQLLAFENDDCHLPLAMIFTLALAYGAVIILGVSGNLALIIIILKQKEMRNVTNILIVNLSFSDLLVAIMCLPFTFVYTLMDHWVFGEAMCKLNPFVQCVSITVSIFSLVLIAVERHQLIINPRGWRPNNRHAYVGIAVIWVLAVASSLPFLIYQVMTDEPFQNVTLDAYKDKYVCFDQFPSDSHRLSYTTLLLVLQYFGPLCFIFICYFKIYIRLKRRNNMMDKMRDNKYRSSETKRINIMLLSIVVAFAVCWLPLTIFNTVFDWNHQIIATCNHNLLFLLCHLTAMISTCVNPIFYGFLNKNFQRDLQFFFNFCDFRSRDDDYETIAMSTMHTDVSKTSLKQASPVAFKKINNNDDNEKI
Description: IC50 of human NPY-Y1 blockers – cell-based, dose response (AID 1277). Type of experiment: functional.

In another experiment the target is T5, Galanin receptor type 3 (Homo sapiens, UniProt O60755).
T5 sequence (O60755 whole entry): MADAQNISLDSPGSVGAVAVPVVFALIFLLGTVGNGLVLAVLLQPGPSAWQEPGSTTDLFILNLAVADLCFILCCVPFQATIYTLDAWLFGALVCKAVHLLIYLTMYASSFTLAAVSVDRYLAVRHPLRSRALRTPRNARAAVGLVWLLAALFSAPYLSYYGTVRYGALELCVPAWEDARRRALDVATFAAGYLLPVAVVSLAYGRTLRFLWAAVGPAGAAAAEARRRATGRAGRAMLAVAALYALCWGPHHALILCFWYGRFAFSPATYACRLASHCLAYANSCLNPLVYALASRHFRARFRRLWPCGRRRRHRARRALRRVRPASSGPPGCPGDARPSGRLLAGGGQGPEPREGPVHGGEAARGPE
In words: Fluorescence-based cell-based primary high throughput dose response assay to identify antagonists of the Galanin Receptor 3 (GalR3). Type of experiment: functional.

Experiment [12] concerns the target T6, Eukaryotic translation initiation factor 2-alpha kinase 3 (Homo sapiens, UniProt Q9NZJ5).
T6 sequence (Q9NZJ5 whole entry): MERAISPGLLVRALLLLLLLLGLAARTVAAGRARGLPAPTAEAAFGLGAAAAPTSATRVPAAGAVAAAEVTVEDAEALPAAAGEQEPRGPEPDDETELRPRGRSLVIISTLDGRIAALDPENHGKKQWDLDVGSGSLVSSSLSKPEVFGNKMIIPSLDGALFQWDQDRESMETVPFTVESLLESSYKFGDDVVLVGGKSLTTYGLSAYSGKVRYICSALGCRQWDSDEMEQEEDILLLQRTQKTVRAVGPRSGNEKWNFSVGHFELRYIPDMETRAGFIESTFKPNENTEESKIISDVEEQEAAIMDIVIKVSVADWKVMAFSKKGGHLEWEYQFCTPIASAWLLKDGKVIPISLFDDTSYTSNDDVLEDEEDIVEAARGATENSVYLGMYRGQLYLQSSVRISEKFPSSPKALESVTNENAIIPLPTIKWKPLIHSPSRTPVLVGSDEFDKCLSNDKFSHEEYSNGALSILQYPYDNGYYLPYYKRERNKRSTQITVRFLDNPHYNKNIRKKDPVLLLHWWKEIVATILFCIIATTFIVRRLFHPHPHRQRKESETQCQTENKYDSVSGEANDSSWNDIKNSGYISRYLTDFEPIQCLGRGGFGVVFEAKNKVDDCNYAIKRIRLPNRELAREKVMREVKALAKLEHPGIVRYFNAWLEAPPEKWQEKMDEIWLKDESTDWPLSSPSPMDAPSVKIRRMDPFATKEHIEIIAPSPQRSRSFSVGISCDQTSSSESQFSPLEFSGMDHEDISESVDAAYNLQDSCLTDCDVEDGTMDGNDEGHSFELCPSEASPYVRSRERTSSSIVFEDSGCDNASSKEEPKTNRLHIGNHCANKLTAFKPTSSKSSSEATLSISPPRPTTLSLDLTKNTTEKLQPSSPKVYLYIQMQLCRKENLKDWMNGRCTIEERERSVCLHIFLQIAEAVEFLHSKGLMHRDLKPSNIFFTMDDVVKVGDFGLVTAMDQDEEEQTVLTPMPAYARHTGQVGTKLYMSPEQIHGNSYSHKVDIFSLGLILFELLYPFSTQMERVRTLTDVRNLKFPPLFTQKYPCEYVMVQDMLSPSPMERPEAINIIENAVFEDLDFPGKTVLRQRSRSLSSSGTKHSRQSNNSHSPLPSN
In words: Counterscreen assay for PERK inhibitors: Dose response cell-based high throughput screening assay to measure inhibition of PERK at 6 hours. [Related pubchem assays: 1522, 1416 ]. Format: functional.

The next experiment in a line: cells. To be noted: HEK-CNG. Type of experiment: functional, cell-based.
The target of experiment [13] is T6, Eukaryotic translation initiation factor 2-alpha kinase 3. In words: Dose response cell-based high-throughput screening assay to measure PERK inhibition. [Related pubchem assays: 1416 ]. Type of experiment: functional.
For experiment [14], the system named is BJ. Description: BJ-TERT fibroblast viability loss – cell-based, RAS-independent, luminescence, dose response (AID 1933). Type of experiment: functional. To be noted: Homo sapiens.
The test system of experiment [15] is BJ. Description: BJ-TERT-LT-ST fibroblast viability loss – cell-based, RAS-independent, luminescence, dose response (AID 1935).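 Note: BJ fibroblasts immortalized with TERT plus LT and ST oncogenes.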 Format: functional. To be noted: Homo sapiens.
The subject of experiment [16] is BJ. Description: cells. The settings on record: Homo sapiens. Type of experiment: functional, cell-based.
The target of experiment [17] is Cyclin-dependent kinase 5/CDK5 activator 1 (Homo sapiens, UniProt Q00535). In words: blockade of human CDK5 activity – biochemical, cherry-picked samples, set 2, dose response (AID 504545).
Chain of Cyclin-dependent kinase 5/CDK5 activator 1 (Q00535 whole entry): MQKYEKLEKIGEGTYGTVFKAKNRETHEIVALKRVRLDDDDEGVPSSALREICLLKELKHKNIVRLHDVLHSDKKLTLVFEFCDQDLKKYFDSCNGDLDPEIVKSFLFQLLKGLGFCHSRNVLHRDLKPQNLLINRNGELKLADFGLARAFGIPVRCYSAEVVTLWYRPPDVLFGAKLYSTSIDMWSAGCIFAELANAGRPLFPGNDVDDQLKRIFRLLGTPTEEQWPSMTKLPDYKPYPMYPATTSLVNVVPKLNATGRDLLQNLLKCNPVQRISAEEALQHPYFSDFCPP
Chain of Cyclin-dependent kinase 5/CDK5 activator 1 (Q15078 whole entry, further chain): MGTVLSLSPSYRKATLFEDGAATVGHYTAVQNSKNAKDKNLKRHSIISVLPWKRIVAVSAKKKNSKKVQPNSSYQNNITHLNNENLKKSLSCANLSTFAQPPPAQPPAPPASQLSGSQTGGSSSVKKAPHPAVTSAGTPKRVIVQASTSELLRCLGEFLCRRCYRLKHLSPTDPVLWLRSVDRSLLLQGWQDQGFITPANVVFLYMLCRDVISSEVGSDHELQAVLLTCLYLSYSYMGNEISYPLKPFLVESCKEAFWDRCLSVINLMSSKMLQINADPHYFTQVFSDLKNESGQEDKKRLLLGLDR
Experiment [18] can be described thus: DRD fibroblast viability loss – cell-based, non-viral oncogenic, luminescence, dose response (AID 1934). Format: functional. To be noted: Homo sapiens.
A further experiment deals with Chaperone protein dnaK (Escherichia coli, UniProt C3TRK2). In words: E. coli DnaK binders, calorimetric Kd – biophysical, isothermal titration calorimetry, beta-domain, full-length DnaK, orthogonal assay for DnaK modulator project, SAR follow-up (AID 1495). (Isothermal titration calorimetry measures the heat released or taken up as one component is titrated into another.)
Chain of Chaperone protein dnaK (C3TRK2 whole entry): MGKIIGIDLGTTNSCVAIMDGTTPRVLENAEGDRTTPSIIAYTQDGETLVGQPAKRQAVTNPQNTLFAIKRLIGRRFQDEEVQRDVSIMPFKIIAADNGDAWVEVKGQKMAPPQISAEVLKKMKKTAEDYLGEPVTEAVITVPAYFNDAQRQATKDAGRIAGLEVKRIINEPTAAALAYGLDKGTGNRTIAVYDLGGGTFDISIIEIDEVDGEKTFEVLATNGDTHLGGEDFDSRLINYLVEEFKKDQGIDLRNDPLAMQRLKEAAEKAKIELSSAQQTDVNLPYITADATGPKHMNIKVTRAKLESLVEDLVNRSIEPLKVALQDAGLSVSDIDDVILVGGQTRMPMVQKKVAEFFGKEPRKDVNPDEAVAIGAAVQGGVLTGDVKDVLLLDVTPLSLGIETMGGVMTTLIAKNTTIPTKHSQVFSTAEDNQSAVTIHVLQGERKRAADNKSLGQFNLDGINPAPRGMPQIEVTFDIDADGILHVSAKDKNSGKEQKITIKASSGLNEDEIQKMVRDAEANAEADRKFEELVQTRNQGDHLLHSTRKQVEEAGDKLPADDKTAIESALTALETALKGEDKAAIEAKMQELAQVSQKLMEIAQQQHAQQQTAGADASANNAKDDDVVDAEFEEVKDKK

In experiment [19] the target is T7, Voltage-gated N-type calcium channel alpha-1B subunit/Amyloid beta A4 precursor protein-binding family A member 1 (Homo sapiens, UniProt Q00975+Q02410). Description: disruptors of Mint-PDZ/N-type channel peptide interaction – biochemical, HTRF, SAR follow-up (AID 2489). Type of experiment: functional.
Experiment [20] concerns the target T7, Voltage-gated N-type calcium channel alpha-1B subunit/Amyloid beta A4 precursor protein-binding family A member 1. In words: disruptors of Mint-PDZ/N-type channel peptide interaction – biochemical, HTRF, set 2, SAR follow-up (AID 434980). Format: functional.
Another experiment addresses SUMO E1/E2 (Homo sapiens, UniProt P63279+Q9UBE0+Q9UBT2). Description: SAR analysis of SUMOylation using HTRF in an in-Vitro dose response assay. [Related pubchem assays (depositor defined):AID2006, AID2011, AID2018, AID2069, AID2658]. Format: functional.
For the next experiment, the target named is Neutrophil collagenase (Homo sapiens, UniProt P22894). Description: potency against MMP13, MMP2, MMP3, MMP14 – biochemical, probe development, late stage results, selectivity assay for MMP13 inhibitor project, late-stage follow-up, panel member MMP-8 [IC50 Assay] (AID 2067).
Chain of Neutrophil collagenase (P22894 whole entry): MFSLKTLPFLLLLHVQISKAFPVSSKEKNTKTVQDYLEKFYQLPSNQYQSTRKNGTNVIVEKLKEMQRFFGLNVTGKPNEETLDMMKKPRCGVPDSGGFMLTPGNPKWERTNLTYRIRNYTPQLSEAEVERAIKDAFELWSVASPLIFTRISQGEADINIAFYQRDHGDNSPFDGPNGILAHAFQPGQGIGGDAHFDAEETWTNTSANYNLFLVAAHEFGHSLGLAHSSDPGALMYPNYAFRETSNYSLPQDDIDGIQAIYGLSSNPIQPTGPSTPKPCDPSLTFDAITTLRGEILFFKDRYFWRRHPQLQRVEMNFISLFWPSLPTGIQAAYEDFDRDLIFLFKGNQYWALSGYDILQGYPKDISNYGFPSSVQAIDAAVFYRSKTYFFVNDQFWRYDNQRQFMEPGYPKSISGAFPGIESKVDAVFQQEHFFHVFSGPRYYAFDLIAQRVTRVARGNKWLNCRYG
In another experiment the target is Collagenase 3 (Homo sapiens, UniProt P45452). In words: potency against MMP13, MMP2, MMP3, MMP14 – biochemical, probe development, late stage results, selectivity assay for MMP13 inhibitor project, late-stage follow-up, panel member MMP-13 [IC50 Assay] (AID 2067).

The source made the active and inactive calls.

These results are taken from ChEMBL document CHEMBL1201862, “PubChem BioAssay data set” (2004).

T1 sequence (O95180 whole entry): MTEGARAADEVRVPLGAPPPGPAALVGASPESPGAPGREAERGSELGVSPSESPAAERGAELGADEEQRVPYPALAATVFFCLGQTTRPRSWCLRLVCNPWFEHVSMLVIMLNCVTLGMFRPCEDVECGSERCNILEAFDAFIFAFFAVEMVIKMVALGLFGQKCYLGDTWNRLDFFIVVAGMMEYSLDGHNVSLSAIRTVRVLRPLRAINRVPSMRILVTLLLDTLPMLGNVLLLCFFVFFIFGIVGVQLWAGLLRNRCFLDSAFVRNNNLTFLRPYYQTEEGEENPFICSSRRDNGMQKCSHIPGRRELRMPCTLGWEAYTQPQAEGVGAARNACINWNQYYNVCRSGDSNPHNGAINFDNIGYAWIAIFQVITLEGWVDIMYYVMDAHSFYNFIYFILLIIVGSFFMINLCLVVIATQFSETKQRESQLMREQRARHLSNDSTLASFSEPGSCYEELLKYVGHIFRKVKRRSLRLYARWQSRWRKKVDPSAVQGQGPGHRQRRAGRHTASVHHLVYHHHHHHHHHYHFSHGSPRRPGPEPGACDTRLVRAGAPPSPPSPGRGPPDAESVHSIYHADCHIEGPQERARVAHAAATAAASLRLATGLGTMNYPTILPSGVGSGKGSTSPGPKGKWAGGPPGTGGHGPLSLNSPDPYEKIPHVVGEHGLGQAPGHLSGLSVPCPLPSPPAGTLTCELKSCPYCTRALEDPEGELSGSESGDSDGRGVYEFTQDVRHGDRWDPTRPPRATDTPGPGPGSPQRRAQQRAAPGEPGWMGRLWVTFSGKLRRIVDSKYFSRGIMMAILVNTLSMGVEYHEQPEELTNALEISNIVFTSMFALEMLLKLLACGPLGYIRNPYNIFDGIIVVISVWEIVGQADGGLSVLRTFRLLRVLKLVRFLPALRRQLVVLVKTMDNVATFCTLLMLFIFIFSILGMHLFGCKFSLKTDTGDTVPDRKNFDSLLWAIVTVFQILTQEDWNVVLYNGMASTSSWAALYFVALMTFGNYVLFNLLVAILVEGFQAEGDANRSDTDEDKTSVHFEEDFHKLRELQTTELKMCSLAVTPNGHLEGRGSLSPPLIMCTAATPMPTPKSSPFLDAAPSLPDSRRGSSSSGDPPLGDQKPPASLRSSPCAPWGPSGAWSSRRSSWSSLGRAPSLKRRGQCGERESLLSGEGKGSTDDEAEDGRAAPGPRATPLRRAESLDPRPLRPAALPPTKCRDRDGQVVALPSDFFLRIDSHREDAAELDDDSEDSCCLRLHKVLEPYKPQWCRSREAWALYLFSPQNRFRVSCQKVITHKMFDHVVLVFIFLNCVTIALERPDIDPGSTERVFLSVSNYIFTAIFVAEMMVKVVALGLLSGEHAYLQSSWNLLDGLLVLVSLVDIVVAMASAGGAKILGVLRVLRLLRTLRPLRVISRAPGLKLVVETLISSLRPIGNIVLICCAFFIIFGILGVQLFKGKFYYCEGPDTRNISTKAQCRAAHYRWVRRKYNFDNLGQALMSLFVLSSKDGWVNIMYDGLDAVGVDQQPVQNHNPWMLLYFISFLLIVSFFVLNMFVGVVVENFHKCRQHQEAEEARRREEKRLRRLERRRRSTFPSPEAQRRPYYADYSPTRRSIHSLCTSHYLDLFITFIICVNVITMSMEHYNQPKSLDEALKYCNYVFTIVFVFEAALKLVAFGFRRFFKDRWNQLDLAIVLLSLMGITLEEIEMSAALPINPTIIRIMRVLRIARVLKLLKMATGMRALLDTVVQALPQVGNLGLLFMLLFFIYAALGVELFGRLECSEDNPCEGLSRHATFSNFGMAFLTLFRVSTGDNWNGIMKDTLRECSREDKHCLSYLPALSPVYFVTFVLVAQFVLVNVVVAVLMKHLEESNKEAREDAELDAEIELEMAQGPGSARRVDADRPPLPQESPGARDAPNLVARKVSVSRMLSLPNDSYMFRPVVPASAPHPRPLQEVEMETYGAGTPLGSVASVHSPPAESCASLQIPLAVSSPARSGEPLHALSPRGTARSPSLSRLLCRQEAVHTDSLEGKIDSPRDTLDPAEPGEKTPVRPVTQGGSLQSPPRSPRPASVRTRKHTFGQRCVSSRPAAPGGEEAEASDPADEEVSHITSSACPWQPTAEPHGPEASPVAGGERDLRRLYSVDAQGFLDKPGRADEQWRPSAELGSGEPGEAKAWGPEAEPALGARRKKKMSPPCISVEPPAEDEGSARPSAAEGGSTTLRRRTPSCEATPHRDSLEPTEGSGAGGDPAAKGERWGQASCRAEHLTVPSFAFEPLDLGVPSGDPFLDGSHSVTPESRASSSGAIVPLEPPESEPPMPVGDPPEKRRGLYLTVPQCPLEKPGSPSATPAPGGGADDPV
Chain of Neuropeptides B/W receptor type 1 (P48145 whole entry): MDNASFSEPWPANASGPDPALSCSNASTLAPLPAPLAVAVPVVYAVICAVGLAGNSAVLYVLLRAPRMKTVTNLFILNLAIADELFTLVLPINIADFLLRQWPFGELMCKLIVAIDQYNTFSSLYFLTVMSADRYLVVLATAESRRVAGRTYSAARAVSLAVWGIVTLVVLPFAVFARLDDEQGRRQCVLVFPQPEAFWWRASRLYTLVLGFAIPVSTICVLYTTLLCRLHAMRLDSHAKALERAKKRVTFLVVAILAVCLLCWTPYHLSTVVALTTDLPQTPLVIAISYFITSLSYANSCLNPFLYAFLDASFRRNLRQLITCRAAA

Consider `CCc1ccc(-c2nc(CN3CCCC(C(=O)NCCc4ccc(OC)c(OC)c4)C3)c(C)o2)cc1` (configuration not stated), for which the EC50 – broadly, the concentration at which the effect is half-maximal – in [1] is 5.02 µM (active); in experiment [2], 0.161 µM (active); in [3], 3.95 µM (active); in experiment [4], > 60 µM (not active).

On to `COc1ccc(C(=O)C[N+]2(C)CCOCC2)cc1`, for which the IC50 (as a rule, the point on the concentration scale where inhibition reaches its midpoint) in [5] is > 100 µM (inactive); in experiment [6] it was > 50 µM (not active); in [7], 4.41 µM (active).

Consider `Cc1ccc(C(=O)C[n+]2cc(-c3ccccc3)n3c2CCCCC3)cc1`, for which the IC50 in [8] is 8.01 µM (active); in experiment [9], > 14.6 µM (not active); in [10], 31.2 µM (not active); in [11], 6.06 µM (active). Moreover, in the experiment on INS1, the AC50 (usually the concentration giving half of the maximal activity seen) was 4.71 µM (active).

In the case of `NC(=O)c1cn(C2OC(CO)C(O)C2O)c2ncnc(N)c12` (configuration not stated), the IC50 on Galanin receptor type 3 was 1.31 µM (active). For the same compound, the EC50 in [12] was > 55.7 µM (not active); in the experiment “cells”, > 29.9 µM (inactive); in [13] it was > 55.7 µM (not active); in the experiment on BJ [14], 0.874 µM (active); with BJ [15], 1.19 µM (inconclusive); in the experiment on BJ [16] it was 1.27 µM (inconclusive). Also, in experiment [18], the EC50 was 1.09 µM (active). Also, the AC50 in experiment [17] was 14.6 µM (active).

For the compound `O=C(NCc1c(Cl)cccc1Cl)c1cccs1`, the Kd (in general, the equilibrium constant for the complex coming apart) at Chaperone protein dnaK is 1.5 µM (active).

Take `O=C(COC(=O)c1cc(-c2ccco2)nc2ccccc12)NC(=O)c1ccccc1`: the half-maximal inhibitory concentration (IC50) in experiment [19] is 21.9 µM (active); in experiment [20], 8.83 µM (active); at SUMO E1/E2, 2.18 µM (active).

Turning to `O=c1[nH]c(SCc2ccc(OC(F)(F)F)cc2)nc2c1CCC2`, the figures for the IC50 at Neutrophil collagenase and on Collagenase 3 were > 39.8 µM (inactive) and > 39.8 µM (active), respectively.
